In patent US10330683B2, “Mutant smoothened and methods of using the same” (Genentech, Inc., priority 2015, dated 2019):
pIC50: −log10 of the molar value. “Also recorded” adds a separate entry of the source.

Key:
[1] = system: PPT CGNPs infected with SMO-WT and Cre; experiment: methyl-[3H]-thymidine incorporation (proliferation) of virally transduced PPT CGNPs after removal of SHH; type: cell-based, mice
Source text: (§1) It has previously been noted that Hh-driven tumor cells rapidly lose their Hh pathway dependence during culturing (Sasai et al., 2006). However, CGNPs proliferate in vivo in a Hh dependent manner and maintain their Hh pathway dependence in culture for a finite period (Wechsler-Reya and Scott, 1999). CGNPs isolated from Ptch1loxp/loxp Tp53loxp/loxp Rosa26LSL-tdTomato (PPT) pups were infected with lentiviral constructs expressing a SMO variant together with an enhanced green fluorescent protein (eGFP)-Cre fusion protein (FIG. 12C). The Cre recombinase induces loss of Ptch1 and thus ensures that only transduced CGNPs can proliferate in the absence of exogenous Sonic hedgehog ligand (SHH; FIG. 11D). […] Proliferation by methyl-[3H]-thymidine incorporation was monitored, while Cre-dependent tandem dimer (td) Tomato expression enabled visualization and quantification of infected cells. This system also enabled better model patient genetics because most of the SMO mutations were identified in tumors that harbored TP53 mutations and were driven by loss of PTCH1. […] It was confirmed that CGNPs were infected at similar frequencies by fluorescence-activated cell sorting (FACS) analysis for Cre-dependent tdTomato reporter expression, and that the SMO variants were expressed at equivalent levels by quantitative reverse transcription (qRT) PCR.
(§2) Cerebella from post-natal day 5-7 Ptch1^loxp/loxp Rosa26^LSLtdTomato Tp53^loxp/loxp mice were dissociated in 0.05% Trypsin for 10 min at 37° C. Cells were collected by centrifugation at 514×g for 10 min at 4° C., resuspended in CGNP media (Neurobasal medium (Life Technologies) containing 1×B27 (without vitamin A; Life Technologies), 0.45% glucose (Sigma Aldrich), 25 mM KCl, 0.4% bovine serum albumin (Sigma Aldrich), 2 mM glutamine, 100 U/ml Penicillin (Life Technologies), 100 μg/ml Streptomycin (Life Technologies), 200 ng/ml octylated recombinant SHH) and filtered through a 0.45 μm filter (Falcon). Cells were plated in poly-D-lysine coated 6-well plates (Corning) at 5×10E5 cells/well and infected with lentivirus at a multiplicity of infection (MOI) of 1. After 24 hr, cells were harvested by trypsinization, collected in CGNP media and replated for downstream applications.
(§3) To examine the effects of HPIs on proliferation, virally transduced CGNPs were plated in poly-D-lysine-coated 96-well plates (Corning) at 25,000 cells/well in CGNP media without SHH. […] After 24 hr, cells were pulsed with 1 μCi/ml methyl-[^3H]-thymidine (Amersham/GE Healthcare) and cultured for an additional 16-24 hr. Cells were harvested onto 96-well filter plates (Perkin Elmer) using a Filtermate Cell Harvester (Perkin Elmer), and incorporated radioactivity was quantified by liquid scintillation spectrophotometry on a TopCount NXT (PerkinElmer).

[2] = system: PPT CGNPs expressing vismodegib-resistant SMO mutants; experiment: as above; type: cell-based, mice; details: 1 μM JQ1; FIG. 16B
Source text: as §1, §2, §3

[3] = molecular target: SMO-L515A (Homo sapiens, UniProt Q99835, L515A); details: L515A expressed, activating; 1 mM vismodegib; cited from earlier work
[4] = system: activating SMO mutants; experiment: [3H]-vismodegib binding to HEK-293 cells transfected with SMO constructs; design: species or system human; details: all activating mutants tested; cell surface expression comparable to SMO-WT; FIG. 15C
Procedure: (§4) SMO mutants were generated in pRK5-SMO vectors as described (Dijkgraaf et al., 2011; Yauch et al., 2009) and were either utilized in Gli-luciferase reporter assays as described (Dijkgraaf et al., 2011) or cloned into lentiviral vectors for transduction of primary CGNP cultures. Proliferation was assayed using methyl-[3H]-thymidine incorporation (Kool et al., 2014).
(§5) 2×10E6 HEK-293 cells were seeded into 10-cm plates and transfected 16 hours later with 3 μg of either empty vector or SMO expression construct using GeneJuice (Novagen). Cells were harvested 40 hours later in PBS with 1 mM EDTA and fixed in PBS with 4% PFA for 10 minutes at room temperature (RT), after which they were washed 3× in PBS with 1 mM EDTA and plated into 96-well plates at 100,000 cells per well. […] of MicroScint fluid (Perkin Elmer) was added per well and counts per minute were assessed using a PerkinElmer TopCount NXT. All samples were analyzed in triplicate.

[5] = system: metastatic and locally advanced BCC; details: cited from earlier work
[6] = molecular target: SMO-D473H (Homo sapiens, UniProt Q99835, D473H); details: cited from earlier work
[7] = system: SMOW535L expressing CGNPs; experiment: methyl-[3H]-thymidine incorporation (proliferation) of virally transduced PPT CGNPs after removal of SHH; type: cell-based, mice; details: high concentrations of vismodegib, FIGS. 14D and 15E
Source text: (§6) It has previously been noted that Hh-driven tumor cells rapidly lose their Hh pathway dependence during culturing (Sasai et al., 2006). However, CGNPs proliferate in vivo in a Hh dependent manner and maintain their Hh pathway dependence in culture for a finite period (Wechsler-Reya and Scott, 1999). CGNPs isolated from Ptch1loxp/loxp Tp53loxp/loxp Rosa26LSL-tdTomato (PPT) pups were infected with lentiviral constructs expressing a SMO variant together with an enhanced green fluorescent protein (eGFP)-Cre fusion protein (FIG. 12C). The Cre recombinase induces loss of Ptch1 and thus ensures that only transduced CGNPs can proliferate in the absence of exogenous Sonic hedgehog ligand (SHH; FIG. 11D). […] Proliferation by methyl-[3H]-thymidine incorporation was monitored, while Cre-dependent tandem dimer (td) Tomato expression enabled visualization and quantification of infected cells.
as §2, with “After 24 hr, cells were harvested by trypsinization, collected in CGNP media and replated for downstream applications.” left out
(§7) To examine the effects of HPIs on proliferation, virally transduced CGNPs were plated in poly-D-lysine-coated 96-well plates (Corning) at 25,000 cells/well in CGNP media without SHH. […] Cells were harvested onto 96-well filter plates (Perkin Elmer) using a Filtermate Cell Harvester (Perkin Elmer), and incorporated radioactivity was quantified by liquid scintillation spectrophotometry on a TopCount NXT (PerkinElmer).

[8] = system: SMO-A459V expressing CGNPs; experiment: as above; type: cell-based, mice; details: high concentrations of vismodegib, FIGS. 14D and 15E
Source text: as §6
as §2, with “After 24 hr, cells were harvested by trypsinization, collected in CGNP media and replated for downstream applications.” left out
as §7

[9] = system: SMO-T241M expressing CGNPs; experiment: as above; type: cell-based, mice; details: high concentrations of vismodegib, FIGS. 14D and 15E
Source text: as §6
as §2, with “After 24 hr, cells were harvested by trypsinization, collected in CGNP media and replated for downstream applications.” left out
as §7

[10] = system: medulloblastoma; details: initial response; no durable response, relapse of the tumor; cited from earlier work
[11] = molecular target: T1, SMO-I408V (Homo sapiens, UniProt Q99835, I408V); experiment: [3H]-vismodegib binding to HEK-293 cells transfected with SMO constructs; details: 5 nM [3H]-vismodegib, cell surface levels similar to SMO-WT, FIG. 12B
T1 construct: expressed in transfected cells; host or cells: HEK-293 cells
Procedure: as §4, §5

[12] = system: PPT CGNPs infected with SMO-C469Y; experiment: methyl-[3H]-thymidine incorporation (proliferation) of virally transduced PPT CGNPs after removal of SHH; type: cell-based, mice; details: 5 μM vismodegib
Source text: as §1, §2, §3

[13] = system: PPT CGNPs infected with SMO DBP mutations; experiment: as above; type: cell-based, mice; details: all DBP mutations; high levels of vismodegib (>1 μM); FIG. 12D
Source text: as §1, §2, §3

[14] = molecular target: T2, SMO-A459V (Homo sapiens, UniProt Q99835, A459V); experiment: Gli-luciferase based Hh reporter assay in C3H10T½ cells transfected with SMO constructs; type: cell-based, mouse; details: GLI1 luciferase reporter, FIGS. 5A-5C
T2 construct: expressed in transfected cells; host or cells: C3H10T½ cells (mouse)
Procedure: as §4
(§8) C3H10T½ cells (ATCC) were seeded into six-well plates at 1.75×10E5 cells/well in DMEM High Glucose with 4 mM glutamine, 10 mM Hepes pH 7.2 and 10% FBS. After 16 h cells were transfected with 400 ng of expression construct, 400 ng of 9×-Gli-BS and 200 ng of pRL-TK per well using GeneJuice Transfection Reagent (Novagen). For the PTCH1 inhibition experiments, cells were transfected with 200 ng SMO expression construct and an additional 200 ng of DNA containing varying ratios of PTCH1 to empty vector. Six hours later, cells from one well were trypsinized and redistributed over four wells of a 12-well plate. After 16 hours the FBS content of the culture medium was reduced to 0.5% to induce formation of primary cilia, and small molecule Hh inhibitors were added at indicated concentrations. Firefly luciferase activity was determined 24 hours later with the Dual-Glo Luciferase Assay System (Promega) and read using a Wallac EnVision plate reader (Perkin Elmer). […]

[15] = molecular target: T3, SMO-D384N (Homo sapiens, UniProt Q99835, D384N); experiment: as above; type: cell-based; details: 1 μM vismodegib, FIG. 13C
T3 construct: expressed in transfected cells; host or cells: C3H10T½ cells (mouse)
Procedure: as §4
as §8, with “Elmer). Values were divided by renilla luciferase activities to normalize for transfection efficiency. Individual experiments were carried out in duplicate or triplicate and repeated at least once. Dose response data were fit to a 4-parameter equation in GraphPad Prism:” for “Elmer).”
(§9) The top and bottom (B) values were constrained to be […] for each sample. ‘H’ is the Hill Slope.

[16] = molecular target: T4, SMO-N219D (Homo sapiens, UniProt Q99835, N219D); experiment: as above; type: cell-based; details: 1 μM vismodegib, FIG. 13C
T4 construct: expressed in transfected cells; host or cells: C3H10T½ cells (mouse)
Procedure: as §4
as §8, with “Elmer). Values were divided by renilla luciferase activities to normalize for transfection efficiency. Individual experiments were carried out in duplicate or triplicate and repeated at least once. Dose response data were fit to a 4-parameter equation in GraphPad Prism:” for “Elmer).”
as §9

[17] = molecular target: T5, SMO-S387N (Homo sapiens, UniProt Q99835, S387N); experiment: as above; type: cell-based; details: 1 μM vismodegib, FIG. 13C
T5 construct: expressed in transfected cells; host or cells: C3H10T½ cells (mouse)
Procedure: as §4
as §8, with “Elmer). Values were divided by renilla luciferase activities to normalize for transfection efficiency. Individual experiments were carried out in duplicate or triplicate and repeated at least once. Dose response data were fit to a 4-parameter equation in GraphPad Prism:” for “Elmer).”
as §9

[18] = system: SMO-D473 mutants (all aa except P); details: cited from earlier work
[19] = system: SMO-E518K and E518A; details: cited from earlier work
[20] = system: SMO-L221R; details: cited from earlier work
[21] = system: SMO-S387N; details: cited from earlier work
[22] = system: SMO-D384N; details: cited from earlier work
[23] = system: SMO-N219D; details: cited from earlier work

T5 sequence (Q99835 28-787 S387N): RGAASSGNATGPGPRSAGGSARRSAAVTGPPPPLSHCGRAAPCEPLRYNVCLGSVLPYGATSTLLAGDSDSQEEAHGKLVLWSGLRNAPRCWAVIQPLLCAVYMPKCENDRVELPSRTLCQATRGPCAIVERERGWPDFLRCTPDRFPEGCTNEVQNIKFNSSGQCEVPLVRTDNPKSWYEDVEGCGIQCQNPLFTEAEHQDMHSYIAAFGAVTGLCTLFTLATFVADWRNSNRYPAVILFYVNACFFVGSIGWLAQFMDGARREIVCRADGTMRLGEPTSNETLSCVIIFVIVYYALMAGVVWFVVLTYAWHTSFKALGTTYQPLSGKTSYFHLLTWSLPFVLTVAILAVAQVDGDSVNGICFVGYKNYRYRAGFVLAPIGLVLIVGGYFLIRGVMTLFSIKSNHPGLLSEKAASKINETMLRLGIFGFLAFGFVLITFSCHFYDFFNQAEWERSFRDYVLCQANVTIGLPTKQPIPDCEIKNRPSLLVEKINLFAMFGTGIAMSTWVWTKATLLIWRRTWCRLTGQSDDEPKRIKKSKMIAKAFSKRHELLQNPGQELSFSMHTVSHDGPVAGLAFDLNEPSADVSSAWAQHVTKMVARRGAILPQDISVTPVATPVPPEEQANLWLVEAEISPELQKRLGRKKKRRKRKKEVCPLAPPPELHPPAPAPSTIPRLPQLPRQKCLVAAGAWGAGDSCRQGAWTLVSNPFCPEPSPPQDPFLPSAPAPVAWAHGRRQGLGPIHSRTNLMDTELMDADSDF
T3 sequence (Q99835 28-787 D384N): as the sequence (Q99835 28-787 S387N) above, with D357N, N360S counted along it
T4 sequence (Q99835 28-787 N219D): as the sequence (Q99835 28-787 S387N) above, with N192D, N360S counted along it
T2 sequence (Q99835 28-787 A459V): as the sequence (Q99835 28-787 S387N) above, with N360S, A432V counted along it
T1 sequence (Q99835 28-787 I408V): as the sequence (Q99835 28-787 S387N) above, with N360S, I381V counted along it
SMO-D473H, sequence (Q99835 28-787 D473H): as the sequence (Q99835 28-787 S387N) above, with N360S, D446H counted along it
SMO-L515A, sequence (Q99835 28-787 L515A): as the sequence (Q99835 28-787 S387N) above, with N360S, L488A counted along it

Cc1sc2c(c1C)C(c1ccc(Cl)cc1)=N[C@@H](CC(=O)OC(C)(C)C)c1nnc(C)n1-2 [JQ1]
residual proliferation in SMO-WT ([1]; 1 μM JQ1 compared with 1 μM vismodegib, FIG. 16B): less residual proliferation | proliferation of PPT CGNPs expressing vismodegib-resistant SMO mutants [2]: reduced proliferation

CS(=O)(=O)c1ccc(C(=O)Nc2ccc(Cl)c(-c3ccccn3)c2)c(Cl)c1 [vismodegib]
inhibition by vismodegib [3]: activating, sensitive | vismodegib binding [4]: impaired | clinical response of BCC patients treated with vismodegib ([5]; majority of BCC patients, complete and partial responses): clinical benefit | advanced BCC patients that develop resistance to vismodegib ([5]; within the first year of treatment, preliminary estimate): up to 20% | drug binding in vitro [6]: abrogate drug binding | proliferation in the presence of vismodegib [7]: continued to proliferate | proliferation in the presence of vismodegib [8]: continued to proliferate | proliferation in the presence of vismodegib [9]: continued to proliferate | response of a patient to treatment [10]: dramatic response | binding of [3H]-labeled vismodegib [11]: impaired | proliferation in the presence of vismodegib [12]: continued to proliferate at near untreated levels | proliferation in the presence of vismodegib [13]: continuing to proliferate | pIC50 ([1]; Mus musculus, SMO-WT and Cre, FIG. 12D): ~7.66 | vismodegib concentration at which proliferation was maximally inhibited ([1]; SMO-WT and Cre): 100 nM | sensitivity to vismodegib [14]: decreased sensitivity | sensitivity to vismodegib compared to SMO-WT [15]: reduced sensitivity; also recorded: D384N reduced | sensitivity to vismodegib compared to SMO-WT [16]: reduced sensitivity; also recorded: N219D reduced | sensitivity to vismodegib compared to SMO-WT [17]: reduced sensitivity; also recorded: S387N reduced | sensitivity to vismodegib [18]: reduce sensitivity to | sensitivity to vismodegib [19]: reduced sensitivity to

Cc1c(C(=O)Nc2ccc(N3C[C@@H](C)O[C@@H](C)C3)nc2)cccc1-c1ccc(OC(F)(F)F)cc1 [LDE-225]
sensitivity to LDE-225 [20]: L221R reduced | sensitivity to LDE-225 [21]: S387N reduced | sensitivity to LDE-225 [22]: D384N reduced | sensitivity to LDE-225 [23]: N219D reduced
